Test systems include ACHN renal; SNB-19 CNS; NCI/ADR-RES ovarian; SNB-75 CNS; SF-539 CNS; NCI-H226 lung; MDA-MB-231 breast; EKVX NSCLC; NCI-H23 lung; KM12 colon.
Holding throughout (assay): NCI anticancer screen, dose series, 48 h

Our source for the GI50 and TGI values is PubChem BioAssay (NCI).

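Cells were grown in 96-well plates and exposed to each compound for 48 hours at five concentrations; endpoints were interpolated linearly between bracketing concentrations, or set to the highest concentration if not reached. GI50 = concentration required for 50% inhibition of growth. At the TGI there is no net growth.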

As to `COc1ccc(C2=NOC3=c4ccccc4=CSC3=C2c2ccccc2)cc1`, the GI50 with ACHN renal was 73.7 µM; with SNB-19 CNS, 34.7 µM; in the experiment with NCI/ADR-RES ovarian it was 41.7 µM; with SNB-75 CNS it was over 100 µM; with SF-539 CNS, 13.3 µM; in the experiment on NCI-H226 lung it was 20.2 µM. Further, the GI50 with MDA-MB-231 breast was 20.3 µM; in the experiment with EKVX NSCLC, 94 µM; with NCI-H23 lung, 46.2 µM; in the experiment with KM12 colon, 57.7 µM. For the same compound, the TGI in the experiment with ACHN renal is over 100 µM; in the experiment on SNB-19 CNS, over 100 µM; in the experiment with NCI/ADR-RES ovarian, over 100 µM; in the experiment with SNB-75 CNS it was over 100 µM; in the experiment with SF-539 CNS it was 37.5 µM; in the experiment on NCI-H226 lung it was 79.8 µM. Also, the TGI in the experiment with MDA-MB-231 breast is 76 µM; in the experiment with EKVX NSCLC it was over 100 µM; in the experiment with NCI-H23 lung, over 100 µM; in the experiment with KM12 colon, over 100 µM.

For the compound `CC(C)OC(=O)c1cc(NC(=S)OC(C)C)ccc1Cl`, the TGI with ACHN renal is over 59.7 µM; with SNB-19 CNS, over 56.3 µM; in the experiment with NCI/ADR-RES ovarian, over 63.4 µM; in the experiment with SNB-75 CNS it was 47.5 µM; with SF-539 CNS, 30.5 µM; in the experiment with NCI-H226 lung, 37.6 µM. Moreover, the TGI in the experiment with MDA-MB-231 breast turned out to be 30.4 µM; in the experiment with EKVX NSCLC, 32.7 µM; in the experiment on NCI-H23 lung, 68.1 µM; in the experiment with KM12 colon, 44.3 µM.

Turning to `c1ccc2[nH]c(-c3cscn3)nc2c1`, the TGI with ACHN renal, with SNB-19 CNS, in the experiment with NCI/ADR-RES ovarian, in the experiment on SNB-75 CNS, in the experiment on SF-539 CNS and with NCI-H226 lung was over 100 µM throughout. The TGI in the experiment with MDA-MB-231 breast, in the experiment with EKVX NSCLC, in the experiment with NCI-H23 lung and in the experiment on KM12 colon was over 100 µM in each case.

Consider `CN1CCC(C(=O)Nc2n[nH]c3nnc(-c4ccccc4)cc23)CC1`, for which the GI50 in the experiment with ACHN renal was over 25 µM; in the experiment on SNB-19 CNS it was over 25 µM; with NCI/ADR-RES ovarian, over 25 µM; in the experiment on SNB-75 CNS, over 5.22 µM; with SF-539 CNS, 11.7 µM; in the experiment on NCI-H226 lung, over 22.3 µM. For the same compound, the GI50 in the experiment with MDA-MB-231 breast was over 25 µM; in the experiment on EKVX NSCLC it was over 25 µM; in the experiment with NCI-H23 lung, over 25 µM; with KM12 colon, 19.4 µM. Besides, the TGI in the experiment on ACHN renal, in the experiment on SNB-19 CNS, with NCI/ADR-RES ovarian, in the experiment with SNB-75 CNS, in the experiment with SF-539 CNS and in the experiment on NCI-H226 lung was over 25 µM each time. Moreover, the TGI in the experiment on MDA-MB-231 breast, in the experiment with EKVX NSCLC, in the experiment with NCI-H23 lung and in the experiment with KM12 colon was over 25 µM each time.

Regarding `CCCCCCCC(=O)OC[n+]1cccc(-c2c(COC(=O)NC(C)C)c(COC(=O)NC(C)C)c3n2CCC3)c1`, the TGI is over 100 µM in the experiment on ACHN renal; over 100 µM in the experiment with SNB-19 CNS; over 100 µM in the experiment on NCI/ADR-RES ovarian; over 100 µM in the experiment with SNB-75 CNS; over 89.5 µM in the experiment with SF-539 CNS; over 100 µM in the experiment on NCI-H226 lung. For the same compound, the TGI in the experiment with MDA-MB-231 breast, in the experiment on EKVX NSCLC, in the experiment with NCI-H23 lung and in the experiment with KM12 colon was over 100 µM throughout.

On to `O=C(/C=C/c1ccccn1)c1ccccc1`, for which the GI50 in the experiment with ACHN renal is 2.44 µM; with SNB-19 CNS, 12 µM; in the experiment on NCI/ADR-RES ovarian, 3.01 µM; in the experiment on SNB-75 CNS, 5.57 µM; in the experiment on SF-539 CNS it was 4.37 µM; with NCI-H226 lung, 15.2 µM. For the same compound, the GI50 in the experiment on MDA-MB-231 breast was 9.92 µM; with EKVX NSCLC, 15.4 µM; in the experiment on NCI-H23 lung, 16.3 µM; in the experiment with KM12 colon it was 4.13 µM. Also, the TGI in the experiment on ACHN renal was determined as 6.2 µM; with SNB-19 CNS, 26.7 µM; in the experiment on NCI/ADR-RES ovarian, 12.1 µM; in the experiment on SNB-75 CNS, 21 µM; with SF-539 CNS, 18.3 µM; with NCI-H226 lung, 29.7 µM. Moreover, the TGI stood at 23.8 µM in the experiment with MDA-MB-231 breast, 31.2 µM with EKVX NSCLC, 34.8 µM in the experiment with NCI-H23 lung and 15.5 µM in the experiment on KM12 colon.

In the case of `COc1ccccc1CNCCCN1C(=O)c2ccc3c4c(ccc(c24)C1=O)C(=O)N(CCCNCCCCN)C3=O`, the GI50 with ACHN renal is 0.576 µM; in the experiment on SNB-19 CNS, 0.51 µM; in the experiment on NCI/ADR-RES ovarian it was 3.58 µM; with SNB-75 CNS, 0.344 µM; in the experiment on SF-539 CNS it was 0.296 µM; with NCI-H226 lung it was 0.828 µM. The GI50 is 0.236 µM in the experiment on MDA-MB-231 breast, 1.15 µM in the experiment with EKVX NSCLC, 0.222 µM with NCI-H23 lung and 0.332 µM with KM12 colon. The TGI amounted to 11.1 µM in the experiment with ACHN renal; 2.58 µM in the experiment on SNB-19 CNS; 22.8 µM in the experiment with NCI/ADR-RES ovarian; 1.67 µM with SNB-75 CNS; 0.818 µM with SF-539 CNS; 2.55 µM with NCI-H226 lung. Moreover, the TGI in the experiment with MDA-MB-231 breast was 2.78 µM; in the experiment with EKVX NSCLC it was 2.82 µM; in the experiment on NCI-H23 lung, 0.595 µM; in the experiment on KM12 colon it was 1.29 µM.

For `COc1cc(C(=O)Nc2ccc(-c3nc4ccccc4[nH]3)cc2)cc(OC)c1OC`, the GI50 with ACHN renal was 8.23 µM; in the experiment with SNB-19 CNS, 11.6 µM; in the experiment on NCI/ADR-RES ovarian, 13 µM; with SNB-75 CNS, 10.9 µM; with SF-539 CNS, 11.6 µM; in the experiment with NCI-H226 lung, 15.3 µM. The GI50 in the experiment on MDA-MB-231 breast is 9.38 µM; in the experiment with NCI-H23 lung, 11.9 µM; in the experiment with KM12 colon it was 9.22 µM. Also, the TGI in the experiment with ACHN renal was 23.1 µM; in the experiment with SNB-19 CNS, 29.1 µM; in the experiment with NCI/ADR-RES ovarian, 73.4 µM; with SNB-75 CNS, 24.6 µM; in the experiment with SF-539 CNS it was 27.9 µM; in the experiment with NCI-H226 lung, 36.7 µM. The results for the TGI in the experiment with MDA-MB-231 breast, in the experiment with NCI-H23 lung and with KM12 colon were 24 µM, 34.6 µM and 32.5 µM, respectively.
